The nature of data set [1]: Kinetic solubility, spectrophotometric. The format is physicochemical. Particulars: aqueous buffer, kinetic from dmso stock, spectrophotometrically at pH 7.4 in HEPES buffer.
Data set [2] is described as follows: Human liver microsome intrinsic clearance, Phase I. The format is in vitro ADME. To be noted: in vitro intrinsic clearance.
Data set [3] concerns the target CSF1R (Homo sapiens, UniProt P07333). Description: CSF1R enzymatic IC50, Z-LYTE assay platform. The format is biochemical. To be noted: for Hill coefficient: Z-LYTE CSF1R IC50 curve; for IC50: Z-LYTE, 10-point titrations in duplicates, ATP equal to KM ca. 10 µM, read-out: CSF1R enz. IC50.
Target sequence in this assay (P07333 20-972): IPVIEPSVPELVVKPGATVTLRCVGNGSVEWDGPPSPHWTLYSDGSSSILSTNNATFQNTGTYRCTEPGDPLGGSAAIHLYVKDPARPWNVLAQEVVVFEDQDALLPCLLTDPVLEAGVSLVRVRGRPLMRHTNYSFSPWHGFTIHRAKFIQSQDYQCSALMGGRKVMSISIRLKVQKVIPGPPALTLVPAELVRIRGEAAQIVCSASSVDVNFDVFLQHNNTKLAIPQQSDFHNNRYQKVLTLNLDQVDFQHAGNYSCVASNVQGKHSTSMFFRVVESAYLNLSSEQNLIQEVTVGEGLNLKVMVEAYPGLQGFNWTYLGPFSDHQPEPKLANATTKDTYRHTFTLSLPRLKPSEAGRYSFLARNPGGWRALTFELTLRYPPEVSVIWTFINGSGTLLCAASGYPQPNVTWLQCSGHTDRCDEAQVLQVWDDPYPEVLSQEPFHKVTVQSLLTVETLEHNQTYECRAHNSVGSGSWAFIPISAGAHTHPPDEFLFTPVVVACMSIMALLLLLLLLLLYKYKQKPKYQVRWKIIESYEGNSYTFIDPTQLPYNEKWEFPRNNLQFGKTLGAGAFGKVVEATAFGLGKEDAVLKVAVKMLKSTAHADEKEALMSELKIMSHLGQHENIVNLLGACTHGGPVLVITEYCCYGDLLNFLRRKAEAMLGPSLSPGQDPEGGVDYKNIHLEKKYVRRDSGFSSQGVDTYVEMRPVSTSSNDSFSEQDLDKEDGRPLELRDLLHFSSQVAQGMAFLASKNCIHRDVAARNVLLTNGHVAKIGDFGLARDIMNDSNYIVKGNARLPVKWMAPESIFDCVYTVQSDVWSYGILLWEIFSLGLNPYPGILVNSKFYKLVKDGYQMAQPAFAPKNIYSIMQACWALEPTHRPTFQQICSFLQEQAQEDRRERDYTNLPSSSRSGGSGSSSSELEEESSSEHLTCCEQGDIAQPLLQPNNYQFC
The subject of another data set is CSF1R Ba/F3 cells. Description: Cell viability assay, Ba/F3 cells engineered to be dependent on CSF1R. To be noted: duplicate measurements. The format is cell-based.
In another data set the target is T1, cKIT kinase (Homo sapiens, UniProt P10721).
T1 construct: purchased Carna Biosciences
T1 sequence (P10721 26-976): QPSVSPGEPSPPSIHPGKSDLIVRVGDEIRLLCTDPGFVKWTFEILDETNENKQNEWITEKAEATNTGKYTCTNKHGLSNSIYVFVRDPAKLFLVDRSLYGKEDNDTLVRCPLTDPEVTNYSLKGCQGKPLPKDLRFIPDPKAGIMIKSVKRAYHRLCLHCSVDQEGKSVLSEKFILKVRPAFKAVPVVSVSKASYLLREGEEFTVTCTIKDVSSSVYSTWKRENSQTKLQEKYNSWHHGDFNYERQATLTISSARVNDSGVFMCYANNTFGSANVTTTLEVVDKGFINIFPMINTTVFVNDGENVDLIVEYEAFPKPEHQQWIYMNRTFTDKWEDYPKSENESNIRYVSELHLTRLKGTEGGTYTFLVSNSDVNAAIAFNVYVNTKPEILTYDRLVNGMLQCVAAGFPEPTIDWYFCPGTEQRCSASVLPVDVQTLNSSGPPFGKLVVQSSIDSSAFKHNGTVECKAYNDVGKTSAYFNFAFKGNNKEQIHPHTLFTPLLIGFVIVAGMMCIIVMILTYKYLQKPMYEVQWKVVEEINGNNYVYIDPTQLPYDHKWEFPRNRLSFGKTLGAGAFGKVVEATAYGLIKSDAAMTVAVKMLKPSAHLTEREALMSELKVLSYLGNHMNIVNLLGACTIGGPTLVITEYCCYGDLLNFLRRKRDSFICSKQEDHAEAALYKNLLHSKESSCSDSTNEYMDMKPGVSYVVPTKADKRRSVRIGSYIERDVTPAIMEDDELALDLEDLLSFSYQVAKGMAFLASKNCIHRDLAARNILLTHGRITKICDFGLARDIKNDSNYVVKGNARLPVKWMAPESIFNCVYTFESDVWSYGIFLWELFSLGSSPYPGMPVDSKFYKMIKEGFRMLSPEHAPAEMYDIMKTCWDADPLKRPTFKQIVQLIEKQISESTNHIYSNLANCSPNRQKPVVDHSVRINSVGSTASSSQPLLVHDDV
The data set is described as follows: KIT inhibition (KD), TR-FRET tracer displacement. The format is binding. Particulars: kinase tracer 236, anti-GST antibody Eu-conjugate, read-out: KIT enz. KD. In general terms: Time-resolved FRET reads energy transfer from a long-lived donor to a nearby acceptor.

For data set [4], the target named is T2, CSF1R (Homo sapiens, UniProt P07333).
T2 sequence (P07333 539-972 limits assumed): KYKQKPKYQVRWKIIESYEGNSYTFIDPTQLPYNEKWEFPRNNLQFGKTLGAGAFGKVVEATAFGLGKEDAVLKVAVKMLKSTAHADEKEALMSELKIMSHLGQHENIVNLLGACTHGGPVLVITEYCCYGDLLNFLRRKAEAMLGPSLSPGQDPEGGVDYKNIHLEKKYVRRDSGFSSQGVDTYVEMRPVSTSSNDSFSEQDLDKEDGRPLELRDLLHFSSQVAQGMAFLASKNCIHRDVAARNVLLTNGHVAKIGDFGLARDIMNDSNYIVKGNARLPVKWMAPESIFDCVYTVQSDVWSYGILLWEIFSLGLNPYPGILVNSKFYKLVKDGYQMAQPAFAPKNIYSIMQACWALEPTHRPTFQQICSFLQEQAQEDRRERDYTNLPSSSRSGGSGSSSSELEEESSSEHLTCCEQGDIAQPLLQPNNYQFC
Description: CSF1R enzymatic inhibition, TR-FRET-based LANCE Ultra assay. Particulars: single 8-point titrations, ATP concentration 25 µM, read-out: Enz. IC50. The format is biochemical.

The test system of data set [5] is IL-3 dependent Ba/F3 cell line (CSF1R independent). Description: Control assay for cellular toxicity, Ba/F3 cells dependent on IL-3. The format is cell-based. To be noted: Mus musculus, BaF3; Ba/F3 cells dependent on IL-3, control for cellular toxicity.
In data set [6] the test system is KIT-positive cell line GIST-T1. The data set is described as follows: GIST-T1 CellTiter-Glo cell viability assay. The format is cell-based. Particulars: Homo sapiens, GISTT1; cellular proliferation, GIST-T1, 72 h.
The nature of data set [7]: Mouse plasma protein binding. The format is in vitro ADME. To be noted: fraction bound, read-out: PPB (converted).
A short description of the next data set: MDCK permeability assay. To be noted: dog, MDCK cell monolayer; for Papp A→B: A-B direction; for Papp B→A: B-A direction; for efflux ratio: read-out: Ratio Papp B > A/Papp A > B. The format is in vitro ADME, canine.
A short description of data set [8]: Mouse liver microsome intrinsic clearance, Phase I. The format is in vitro ADME. Particulars: in vitro intrinsic clearance. In general terms: Microsomes from liver hold many membrane-bound enzymes, among them those of drug oxidation.
Data set [9] can be described thus: Caco-2 permeability assay. The format is in vitro ADME. To be noted: human; Caco-2 cell assay.
Where [10] appears, read: Mus musculus, BaF3, Ba/F3 cells dependent on CSF1R.

Each structure is given as a SMILES string. ≈ marks a conversion by molar mass, not a printed value. Bounds are passed on as bounds.

The term kinetic solubility denotes solubility judged after dilution from a stock solution rather than from solid. The Hill coefficient is the slope factor of the fitted curve. The term IC50 denotes the concentration that inhibits the measured activity by half. As usually defined, the Kd is the equilibrium constant for the complex coming apart. The term Papp A→B denotes the apparent permeability from the apical to the basolateral side of a cell layer. Low values mean slow passage, high ones fast passage. What is called Papp B→A is the apparent permeability from the basolateral to the apical side of a cell layer. On to `COc1ccc(-n2cc(-c3cc4c(N(C)CC5CCOCC5)ncnc4[nH]3)nn2)cc1` [Compound 21b, 6-(1-(4-Methoxyphenyl)-1H-1,2,3-triazol-4-yl)-N-methyl-N-((tetrahydro-2H-pyran-4-yl)methyl)-7H-pyrrolo[2,3-d]pyrimidin-4-amine], for which the kinetic solubility in data set [1] was 7.3 µM (≈ 3.06 µg/mL). Also, the HLM in data set [2] came out at 74.5 µL/min/mg. This compound registered a Hill coefficient on CSF1R [3] of 0.913. In addition, the IC50 on CSF1R [3] was 1.2 ± 0.3 nM; in the data set with CSF1R Ba/F3 cells (setting [10]), 600 ± 200 nM; on CSF1R [4] it was 3 nM; in data set [5], above 10000 nM; in data set [6] it was above 30000 nM. Further, the Kd at cKIT kinase was above 1000 nM. In addition, the fraction unbound in [7] is 0.24. The compound also displayed a Papp A→B in the data set “MDCK permeability assay” of 10.7 ×10⁻⁶ cm/s. This compound returned a Papp B→A in “MDCK permeability assay” of 13.6 ×10⁻⁶ cm/s. Also, the efflux ratio in the data set “MDCK permeability assay” was 1.3. Further, in data set [8], the MLM is listed as 288 µL/min/mg.

In data set [1], `Cc1ccc(Cn2cc(-c3cc4c(N(C)CC5CCOCC5)ncnc4[nH]3)nn2)cc1` [Compound 25b, N-Methyl-6-(1-(4-methylbenzyl)-1H-1,2,3-triazol-4-yl)-N-((tetrahydro-2H-pyran-4-yl)methyl)-7H-pyrrolo[2,3-d]pyrimidin-4-amine] displayed a kinetic solubility of 10.6 µM (≈ 4.43 µg/mL). Also, the HLM in data set [2] is given as 62.4 µL/min/mg. The Hill coefficient on CSF1R [3] came to 0.981. For the same compound, the IC50 at CSF1R [3] is 1.3 nM; in the data set with CSF1R Ba/F3 cells (Ba/F3 cells dependent on CSF1R), 500 nM; with CSF1R Ba/F3 cells (setting [10]), 1000 nM; on CSF1R [4] it was below 1 nM; in data set [5], above 10000 nM; in data set [6], above 3000 nM. On cKIT kinase, the Kd is above 100 nM. In data set [7], the fraction unbound was 0.025. For the same compound, the Papp A→B in the data set “MDCK permeability assay” came to 10 ×10⁻⁶ cm/s. Further, the Papp B→A in the data set “MDCK permeability assay” worked out at 25.4 ×10⁻⁶ cm/s. Besides, the efflux ratio in the data set “MDCK permeability assay” was 2.6. In data set [8], the MLM is reported as 1980 µL/min/mg.

For the compound `CN(CC1CCOCC1)c1ncnc2[nH]c(-c3cn(Cc4cccnc4)nn3)cc12` [Compound 27b, N-Methyl-6-(1-(pyridin-3-ylmethyl)-1H-1,2,3-triazol-4-yl)-N-((tetrahydro-2H-pyran-4-yl)methyl)-7H-pyrrolo[2,3-d]pyrimidin-4-amine], the kinetic solubility in data set [1] came out at 43 µM (≈ 17.4 µg/mL). Besides, the IC50 was 1700 ± 100 nM with CSF1R Ba/F3 cells (setting [10]), 1.8 nM at CSF1R [4] and above 10000 nM in [5]. Further, in data set [7], the fraction unbound was below 0.01.

The compound `Cc1cccc(CN(C)c2ncnc3[nH]c(-c4cn(C5CCN(C)CC5)nn4)cc23)c1` [Compound 30a, N-Methyl-N-(3-methylbenzyl)-6-(1-(1-methylpiperidin-4-yl)-1H-1,2,3-triazol-4-yl)-7H-pyrrolo[2,3-d]pyrimidin-4-amine] gave a kinetic solubility in [1] of 51 µM (≈ 21.2 µg/mL). The IC50 in the data set on CSF1R Ba/F3 cells (setting [10]) was 1100 ± 100 nM; on CSF1R [4], below 1 nM; in data set [5], above 10000 nM.

`CN1CCC(n2cc(-c3cc4c(N(C)CC5CCOCC5)ncnc4[nH]3)nn2)CC1` [Compound 30b, N-Methyl-6-(1-(1-methylpiperidin-4-yl)-1H-1,2,3-triazol-4-yl)-N-((tetrahydro-2H-pyran-4-yl)methyl)-7H-pyrrolo[2,3-d]pyrimidin-4-amine] yielded a kinetic solubility in data set [1] of 42 µM (≈ 17.2 µg/mL). Further, the IC50 is 2400 ± 500 nM with CSF1R Ba/F3 cells (setting [10]), below 1 nM at CSF1R [4] and above 10000 nM in data set [5].

`Cc1cccc(CN(C)c2ncnc3[nH]c(-c4cn(CC5CCOCC5)nn4)cc23)c1` [Compound 31a, N-Methyl-N-(3-methylbenzyl)-6-(1-((tetrahydro-2H-pyran-4-yl)methyl)-1H-1,2,3-triazol-4-yl)-7H-pyrrolo[2,3-d]pyrimidin-4-amine]: in data set [1], the solubility (kinetic) came out at 2.5 µM (≈ 1.04 µg/mL). Further, the IC50 in the data set with CSF1R Ba/F3 cells (setting [10]) is 2700 ± 1000 nM; on CSF1R [4] it was below 1 nM; in data set [5], above 10000 nM.

In data set [1], `CN(CC1CCOCC1)c1ncnc2[nH]c(-c3cn(CC4CCOCC4)nn3)cc12` [Compound 31b, N-Methyl-N-((tetrahydro-2H-pyran-4-yl)methyl)-6-(1-((tetrahydro-2H-pyran-4-yl)methyl)-1H-1,2,3-triazol-4-yl)-7H-pyrrolo[2,3-d]pyrimidin-4-amine] returned a kinetic solubility of 45 µM (≈ 18.5 µg/mL). In addition, the IC50 in the data set with CSF1R Ba/F3 cells (setting [10]) is 1000 ± 200 nM; at CSF1R [4], below 1 nM; in data set [5], above 10000 nM.

In turn, `FC(F)(F)c1ccc(CNc2ccc(Cc3c[nH]c4ncc(Cl)cc34)cn2)cn1` [PLX-3397, pexidartinib, reference compound] displayed a Hill coefficient at CSF1R [3] of 1.18. In addition, the IC50 in the data set on CSF1R Ba/F3 cells (setting [10]) is 60 ± 100 nM; in data set [5] it was above 10000 nM; in data set [6] it was 30 nM. Further, the fraction unbound in [7] is below 0.01.

Turning to `Cc1cccc(CN(C)c2ncnc3[nH]c(-c4ccc(CO)cc4)cc23)c1` [Structure III], in data set [9], the Papp A→B was 0.69 ×10⁻⁶ cm/s and the Papp B→A turned out to be 0.19 ×10⁻⁶ cm/s.

As for `CN(CC1CCOCC1)c1ncnc2[nH]c(-c3ccc(N)cc3)cc12` [Structure IV, reference compound], the fraction unbound in data set [7] is 0.236.

These data come from publication PMC12196347, “Evaluating Triazole-Substituted Pyrrolopyrimidines as CSF1R Inhibitors” (Molecules, 2025).
